Consider six compounds from patent publication US20130012432A1, “Peptides for Treatment of Obesity” (Novo Nordisk A/S, priority 2010, published 2013).

≈ marks a conversion by molar mass, not a printed value. Positions of bridges follow the written chain, without caps; N, C: chain ends. Non-standard residues stand in square brackets, D forms with d. Residues, ends and D or L forms follow the SMILES beside them. Groups on a side chain read outwards from the residue. *: point of attachment. Palmitoyl(16-(5-tetrazolyl)) = O=C(CCCCCCCCCCCCCCCc1nnn[nH]1)*; Lys(CH2CO2H)2 = N[C@@H](CCCCN(CC(=O)O)CC(=O)O)C(=O)O; C17 diacid = O=C(O)CCCCCCCCCCCCCCCC(=O)*; C16 diacid = O=C(O)CCCCCCCCCCCCCCC(=O)*; Hyp = O=C(O)[C@@H]1C[C@@H](O)CN1; hCys = N[C@@H](CCS)C(=O)O; Orn = NCCC[C@H](N)C(=O)O; Dap = NC[C@H](N)C(=O)O; AEEA = NCCOCCOCC(=O)O A value given as a limit tells only on which side of the number the result lay.

Data set [1] in a line: physchem. The protocol:
From a stock solution in vehicle, either H2O or 10 mM phosphate, containing 1 mg (as weighed) compound per ml, 8-11 aliquots are withdrawn and pH-adjusted individually with HCl/NaOH, to cover the whole pH range.

For data set [2], the target named is human MC4 receptor (Homo sapiens, UniProt P32245). Nature of the data set: biochemical. On the procedure: Assay (V)—Melanocortin Receptor 4 (MC4) Binding Assay
In Vitro ^125NDP-α-MSH Binding to Recombinant BHK Cells Expressing Human MC4 Receptor (Filtration Assay).
The assay was performed in 5 ml minisorb vials (Sarstedt No. 55.526) or in 96-well filter-plates (Millipore MADVN 6550), and using BHK cells expressing the human MC4 receptor using BHK cells stably expressing the human MC4 receptor. The membranes were prepared from frozen or fresh cells that were homogenized in 20 mM HEPES pH 7.1, 5 mM MgCl2 and 1 mg/ml bacitracin and centrifuged at 15000 rpm at 4° C., 10 min in a Sorvall RC 5B plus, SS-34 rotor. The supernatant was discarded, and the pellets were re-suspended in buffer, homogenized and centrifuged two more times. The final pellets were resuspended in the buffer mentioned above, and the protein concentration was measured and adjusted with buffer to 14 to 17 mg/ml and the membrane preparation were kept at −80° C. until assay. The assay was run directly on a dilution of this cell membrane suspension, without any further preparation. The BHK cell membranes are kept at −80° C. until assay, and the assay is run directly on a dilution of this cell membrane suspension, without further preparation. The suspension is diluted to give maximally 10% specific binding, i.e. to approx. 50-100 fold dilution. The assay was performed in a total volume of 200 μl: 50 μl of cell suspension, 50 μl of ^125NDP-α-MSH (≈79 pM in final concentration), 50 μl of test compound and 50 μl binding buffer (pH 7) mixed and incubated for 2 h at 25° C. [binding buffer: 25 mM HEPES, pH 7.0, 1 mM CaCl2, 1 mM MgSO4, 1 mM EGTA, 0.02% Bacitracin, 0.005% Tween™ 20 and 0.1% HSA or, alternatively, 0.1% ovalbumin (Sigma; catalogue No. A-5503)]. Test compounds were dissolved in DMSO and diluted in binding buffer. Radiolabelled ligand and membranes were diluted in binding buffer. The incubation was stopped by dilution with 2×100 μl ice-cold 0.9% NaCl. The radioactivity retained on the filters was counted using a Cobra II auto gamma counter.
The data were analysed by non-linear regression analysis of binding curves, using the Windows™ program GraphPad™ Prism (GraphPad Software, USA).

Data set [3] concerns the target MC1 receptor (Homo sapiens, UniProt Q01726). Nature of the data set: biochemical. In a few lines: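 Compounds competed against 125I-NDP-α-MSH (22 pM final) for binding to stably MC1-expressing BHK cell membranes, 30 °C for 90 min in HEPES pH 7.4 buffer with 0.1% HSA or ovalbumin. Bound ligand collected by filtration and counted; binding curves analysed by non-linear regression.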

Data set [4] addresses T1, human GLP-1 receptor (Homo sapiens, UniProt P43220).
T1 construct: expressed in transfected cells; purified plasma membranes
Nature of the data set: Assay (XI) GLP-1 activity assay, stimulation of cAMP formation. Format: biochemical. To be noted: membranes of BHK467-12A cells expressing human GLP-1 receptor. The text has this: The capture of cAMP is achieved by using a specific antibody conjugated to acceptor beads.

Chain of human MC4 receptor (P32245 whole entry): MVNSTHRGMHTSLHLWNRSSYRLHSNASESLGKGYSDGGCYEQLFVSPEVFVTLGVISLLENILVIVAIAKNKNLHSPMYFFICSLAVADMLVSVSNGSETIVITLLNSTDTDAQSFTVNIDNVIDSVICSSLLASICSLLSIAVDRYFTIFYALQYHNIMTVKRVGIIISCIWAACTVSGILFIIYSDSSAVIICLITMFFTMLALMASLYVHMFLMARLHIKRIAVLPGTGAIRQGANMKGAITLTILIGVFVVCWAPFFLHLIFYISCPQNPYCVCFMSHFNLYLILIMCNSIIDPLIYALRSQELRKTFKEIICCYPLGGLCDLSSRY
Chain of MC1 receptor (Q01726 whole entry): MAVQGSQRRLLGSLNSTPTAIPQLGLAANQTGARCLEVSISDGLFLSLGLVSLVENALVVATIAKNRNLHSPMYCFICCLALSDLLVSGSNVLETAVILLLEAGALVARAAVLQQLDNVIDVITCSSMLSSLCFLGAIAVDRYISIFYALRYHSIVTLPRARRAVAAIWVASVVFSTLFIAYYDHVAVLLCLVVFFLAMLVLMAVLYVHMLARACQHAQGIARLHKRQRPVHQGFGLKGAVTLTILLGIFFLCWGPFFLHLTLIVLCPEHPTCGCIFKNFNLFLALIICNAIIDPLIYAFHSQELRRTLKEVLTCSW
T1 sequence (P43220 24-463): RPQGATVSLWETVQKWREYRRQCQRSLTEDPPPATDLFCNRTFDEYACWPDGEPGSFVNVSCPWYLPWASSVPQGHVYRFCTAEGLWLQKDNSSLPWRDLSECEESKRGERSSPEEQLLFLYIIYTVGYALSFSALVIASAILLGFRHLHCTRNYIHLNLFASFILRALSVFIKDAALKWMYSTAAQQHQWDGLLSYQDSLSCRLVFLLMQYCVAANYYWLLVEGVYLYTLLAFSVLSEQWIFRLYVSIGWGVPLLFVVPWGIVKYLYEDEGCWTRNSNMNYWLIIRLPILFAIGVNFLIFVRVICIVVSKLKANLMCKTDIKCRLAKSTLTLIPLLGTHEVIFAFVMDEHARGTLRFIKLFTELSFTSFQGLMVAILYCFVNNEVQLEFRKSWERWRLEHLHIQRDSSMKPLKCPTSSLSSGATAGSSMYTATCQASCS

As to `CC(=O)N[C@H]1CCC(=O)NC[C@@H](C(=O)N2CCC[C@H]2C(=O)N2CCC[C@H]2C(=O)N[C@@H](CCCNC(=N)N)C(=O)N[C@@H](CC(=O)O)C(=O)N[C@@H](CCCCN(CC(=O)O)CC(=O)O)C(=O)N[C@@H](CCCCNC(=O)COCCOCCNC(=O)CCCCCCCCCCCCCCCc2nnn[nH]2)C(N)=O)NC(=O)[C@H](Cc2c[nH]c3ccccc23)NC(=O)[C@H](CCCNC(=N)N)NC(=O)[C@@H](Cc2ccccc2)NC(=O)[C@H](Cc2c[nH]cn2)NC1=O` [Example 6, Ac-c[Glu-His-D-Phe-Arg-Trp-Dap]-Pro-Pro-Arg-Asp-Lys(biscarboxymethyl)-Lys[(2-{2-[16-(tetrazol-5-yl)hexadecanoylamino]ethoxy}ethoxy)acetyl]-NH2] (Ac-EH[dF]RW[Dap]PPRD[Lys(CH2CO2H)2]K([AEEA-Palmitoyl(16-(5-tetrazolyl))])-NH2; lactam 1-6), the solubility in data set [1] (pH 5.9, Solubility Conc.) came out at 23 µM (≈ 50 µg/mL); in data set [1] (pH 6.3, Solubility Conc.), 24 µM (≈ 52.1 µg/mL); in data set [1] (pH 6.9, Solubility Conc.), 44 µM (≈ 95.6 µg/mL); in data set [1] (pH 7.2, Solubility Conc.), 82 µM (≈ 178 µg/mL); in data set [1] (pH 7.4, Solubility Conc.), 208 µM (≈ 452 µg/mL); in data set [1] (pH 7.5, Solubility Conc.) it was 270 µM (≈ 587 µg/mL). Moreover, the solubility in data set [1] (pH 7.6, Solubility Conc.) stood at 290 µM (≈ 630 µg/mL); in data set [1] (pH 7.8, Solubility Conc.), 254 µM (≈ 552 µg/mL); in data set [1] (pH 8.1, Solubility Conc.) it was 280 µM (≈ 608 µg/mL). Moreover, the Ki in data set [2] was 13 nM; in data set [3] it was above 10 µM.

For `CC(=O)N[C@H]1CCC(=O)NC[C@@H](C(=O)N2C[C@H](O)C[C@H]2C(=O)N2C[C@H](O)C[C@H]2C(=O)N[C@@H](CCCNC(=N)N)C(=O)N[C@@H](CC(=O)O)C(=O)N[C@@H](CCCCN(CC(=O)O)CC(=O)O)C(=O)N[C@@H](CCCCNC(=O)COCCOCCNC(=O)CCCCCCCCCCCCCCCc2nnn[nH]2)C(N)=O)NC(=O)[C@H](Cc2c[nH]c3ccccc23)NC(=O)[C@H](CCCNC(=N)N)NC(=O)[C@@H](Cc2ccccc2)NC(=O)[C@H](Cc2c[nH]cn2)NC1=O` [Example 31, Ac-c[Glu-His-D-Phe-Arg-Trp-Dap]-Hyp-Hyp-Arg-Asp-Lys(biscarboxymethyl)-Lys[(2-{2-[16-(tetrazol-5-yl)hexadecanoylamino]ethoxy}ethoxy)acetyl]-NH2] (Ac-EH[dF]RW[Dap][Hyp][Hyp]RD[Lys(CH2CO2H)2]K([AEEA-Palmitoyl(16-(5-tetrazolyl))])-NH2; lactam 1-6), the solubility in data set [1] (pH 6.6, Solubility Conc.) was found to be 36 µM (≈ 79.4 µg/mL); in data set [1] (pH 6.9, Solubility Conc.) it was 61 µM (≈ 134 µg/mL); in data set [1] (pH 7.3, Solubility Conc.), 96 µM (≈ 212 µg/mL); in data set [1] (pH 7.4, Solubility Conc.), 228 µM (≈ 503 µg/mL); in data set [1] (pH 7.5, Solubility Conc.) it was 440 µM (≈ 970 µg/mL); in data set [1] (pH 7.7, Solubility Conc.), 495 µM (≈ 1090 µg/mL). Besides, the solubility in data set [1] (pH 7.9, Solubility Conc.) was found to be 529 µM (≈ 1170 µg/mL); in data set [1] (pH 8.1, Solubility Conc.), 472 µM (≈ 1040 µg/mL). The Ki was 17 nM in data set [2] and above 10 µM in data set [3].

For `CC(=O)N[C@H]1CCCNC(=O)CC[C@@H](C(=O)N2CCC[C@H]2C(=O)N[C@@H](CO)C(=O)N[C@@H](CO)C(=O)N[C@@H](CO)C(=O)N[C@@H](CCC(=O)O)C(=O)N[C@@H](CCC(=O)O)C(=O)N[C@@H](CO)C(=O)N[C@@H](CO)C(=O)N[C@@H](CCCCNC(=O)COCCOCCNC(=O)CCCCCCCCCCCCCCCC(=O)O)C(N)=O)NC(=O)[C@H](Cc2c[nH]c3ccccc23)NC(=O)[C@H](CCCNC(=N)N)NC(=O)[C@@H](Cc2ccccc2)NC(=O)[C@H](Cc2c[nH]cn2)NC1=O` [Example 39] (Ac-[Orn]H[dF]RWEPSSSEESSK([AEEA-C17 diacid])-NH2; lactam 1-6), the solubility was 272 µM (≈ 614 µg/mL) in data set [1] (pH 6.1, Solubility Conc.); 403 µM (≈ 910 µg/mL) in data set [1] (pH 6.6, Solubility Conc.); 397 µM (≈ 896 µg/mL) in data set [1] (pH 6.9, Solubility Conc.); 419 µM (≈ 946 µg/mL) in data set [1] (pH 7.1, Solubility Conc.); 448 µM (≈ 1010 µg/mL) in data set [1] (pH 7.4, Solubility Conc.); 426 µM (≈ 962 µg/mL) in data set [1] (pH 7.7, Solubility Conc.). For the same compound, the solubility was found to be 397 µM (≈ 896 µg/mL) in data set [1] (pH 8, Solubility Conc.) and 445 µM (≈ 1000 µg/mL) in data set [1] (pH 8.3, Solubility Conc.). Besides, the values for the Ki in data set [2] and in data set [3] were 25 nM and above 10 µM, respectively.

As for `CC(=O)N[C@H]1CCSSC[C@@H](C(=O)N2CCC[C@H]2C(=O)N2CCC[C@H]2C(=O)N[C@@H](CCCCN)C(=O)N[C@@H](CCC(=O)O)C(=O)N[C@@H](CCCCN(CC(=O)O)CC(=O)O)C(=O)N[C@@H](CCCCNC(=O)COCCOCCNC(=O)CCCCCCCCCCCCCCC(=O)O)C(N)=O)NC(=O)[C@H](Cc2c[nH]c3ccccc23)NC(=O)[C@H](CCCNC(=N)N)NC(=O)[C@@H](Cc2ccccc2)NC(=O)[C@H](Cc2c[nH]cn2)NC1=O` [Example 5, Ac-c[homoCys-His-D-Phe-Arg-Trp-Cys]-Pro-Pro-Lys-Glu-Lys(biscarboxymethyl)-Lys({2-[2-(15-carboxypentadecanoylamino)ethoxy]ethoxy}acetyl)-NH2] (Ac-[hCys]H[dF]RWCPPKE[Lys(CH2CO2H)2]K([AEEA-C16 diacid])-NH2; disulfide 1-6), the solubility in data set [1] (pH 3.8, Solubility Conc.) is 486 µM (≈ 1040 µg/mL); in data set [1] (pH 4.6, Solubility Conc.), 452 µM (≈ 968 µg/mL); in data set [1] (pH 4.9, Solubility Conc.), 233 µM (≈ 499 µg/mL); in data set [1] (pH 6.1, Solubility Conc.) it was 200 µM (≈ 428 µg/mL); in data set [1] (pH 6.7, Solubility Conc.), 320 µM (≈ 685 µg/mL); in data set [1] (pH 7.1, Solubility Conc.), 489 µM (≈ 1050 µg/mL). Moreover, the solubility in data set [1] (pH 7.3, Solubility Conc.) was found to be 496 µM (≈ 1060 µg/mL); in data set [1] (pH 7.7, Solubility Conc.), 498 µM (≈ 1070 µg/mL); in data set [1] (pH 7.8, Solubility Conc.) it was 509 µM (≈ 1090 µg/mL). Also, the Ki in data set [2] is 17 nM; in data set [3], above 10 µM.

For the compound exendin-4(7-45) [SEQ ID NO: 4], the “EC50 relative to that of compound G1” value in data set [4] is recorded as “about 0.3 times”.

Take `CC(=O)N[C@H]1CCCCNC(=O)C[C@@H](C(=O)N2CCC[C@H]2C(=O)N[C@@H](CO)C(=O)N[C@@H](Cc2c[nH]cn2)C(=O)N[C@@H](CCC(=O)O)C(=O)N[C@@H](CCCCN(CC(=O)O)CC(=O)O)C(=O)N[C@@H](CCCCNC(=O)COCCOCCNC(=O)CCCCCCCCCCCCCCCC(=O)O)C(N)=O)NC(=O)[C@H](Cc2c[nH]c3ccccc23)NC(=O)[C@H](CCCNC(=N)N)NC(=O)[C@@H](Cc2ccccc2)NC(=O)[C@H](Cc2c[nH]cn2)NC1=O` [Example 49, Ac-c[Lys-His-D-Phe-Arg-Trp-Asp]-Pro-Ser-His-Glu-Lys(biscarboxymethyl)-Lys({2-[2-(16-carboxyhexadecanoylamino)ethoxy]ethoxy}acetyl)-NH2] (Ac-KH[dF]RWDPSHE[Lys(CH2CO2H)2]K([AEEA-C17 diacid])-NH2; lactam 1-6): the solubility in data set [1] (pH 6.5, Solubility Conc.) was found to be 248 µM (≈ 536 µg/mL); in data set [1] (pH 6.6, Solubility Conc.), 423 µM (≈ 914 µg/mL); in data set [1] (pH 6.8, Solubility Conc.), 427 µM (≈ 923 µg/mL); in data set [1] (pH 7, Solubility Conc.) it was 462 µM (≈ 999 µg/mL); in data set [1] (pH 7.3, Solubility Conc.), 460 µM (≈ 994 µg/mL); in data set [1] (pH 7.7, Solubility Conc.), 439 µM (≈ 949 µg/mL). Moreover, the solubility in data set [1] (pH 7.8, Solubility Conc.) was found to be 456 µM (≈ 986 µg/mL); in data set [1] (pH 8, Solubility Conc.), 410 µM (≈ 886 µg/mL); in data set [1] (pH 8.2, Solubility Conc.), 446 µM (≈ 964 µg/mL). Also, the Ki in data set [2] was 25 nM; in data set [3] it was above 10 µM.
